The text below walks through data of PubChem BioAssay (NCI).

The structures appear in SMILES notation.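 Following 48 hours of exposure in 96-well plates, responses at five concentrations were used to interpolate endpoints linearly. GI50 is the concentration that inhibits growth by half. TGI: total growth inhibition.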

Some test systems named below: A498 renal; SW-620 colon; MDA-MB-435; HCT-116 colon; HOP-92 NSCLC; OVCAR-8 ovarian; SK-MEL-5 melanoma; M14 melanoma; UACC-257 melanoma; SNB-75 CNS.
Assay in all cases: inhibition of tumour cell growth, NCI panel, 48 h

Turning to `CSc1nc(Cl)c(Br)c(Nc2c[nH]c(=O)[nH]c2=O)n1`, the TGI in the assay with A498 renal was 35.7 µM; in the assay on SW-620 colon, greater than 100 µM; in the assay on MDA-MB-435, 83.7 µM; in the assay with HCT-116 colon it was 29.3 µM; in the assay on HOP-92 NSCLC, 31.8 µM; in the assay with OVCAR-8 ovarian it was 30.4 µM. In addition, the TGI is 42.6 µM in the assay on SK-MEL-5 melanoma, greater than 100 µM with M14 melanoma, 38.7 µM in the assay on UACC-257 melanoma and 42.7 µM in the assay with SNB-75 CNS.
As for `COc1cc(C/C=C/c2ccccc2)c(OC)cc1O`, the TGI is greater than 100 µM in the assay on A498 renal; 43.3 µM with SW-620 colon; 36.9 µM in the assay with MDA-MB-435; 31.1 µM in the assay on HCT-116 colon; 33 µM with HOP-92 NSCLC; 37 µM in the assay on OVCAR-8 ovarian. Also, the TGI is 62.3 µM in the assay on SK-MEL-5 melanoma, 46.4 µM with M14 melanoma, greater than 100 µM in the assay on UACC-257 melanoma and 77.6 µM with SNB-75 CNS.
In the case of `COc1ccc(/C=C/c2nc(N3CCOCC3)c3cc(F)c(F)cc3n2)cc1OC`, the GI50 in the assay with A498 renal was 3.41 µM; in the assay with SW-620 colon, 6.1 µM; with MDA-MB-435, 3.18 µM; in the assay on HCT-116 colon, 3.53 µM; in the assay on HOP-92 NSCLC, 4.13 µM; in the assay with OVCAR-8 ovarian, 4.57 µM. In addition, the GI50 with SK-MEL-5 melanoma was 1.18 µM; in the assay with M14 melanoma, 2.75 µM; in the assay on UACC-257 melanoma, 4.41 µM; with SNB-75 CNS, 6.14 µM. The TGI in the assay on A498 renal is greater than 100 µM; in the assay on SW-620 colon, greater than 100 µM; in the assay on MDA-MB-435, greater than 100 µM; in the assay with HCT-116 colon it was greater than 100 µM; in the assay with HOP-92 NSCLC, 87.2 µM; with OVCAR-8 ovarian it was greater than 100 µM. Besides, the TGI is 2.81 µM in the assay on SK-MEL-5 melanoma, 26.8 µM in the assay with M14 melanoma, greater than 100 µM in the assay on UACC-257 melanoma and greater than 100 µM in the assay with SNB-75 CNS.
Take `COc1cc(C(=O)/C=C/c2c(-c3ccc(F)cc3)nc3sccn23)cc(OC)c1OC`: the GI50 is 2.35 µM with A498 renal; 2.92 µM in the assay on SW-620 colon; 2.13 µM in the assay with MDA-MB-435; 2.31 µM in the assay with HCT-116 colon; 1.7 µM in the assay with HOP-92 NSCLC; 2.4 µM in the assay on OVCAR-8 ovarian. The GI50 in the assay with SK-MEL-5 melanoma was 1.28 µM; with M14 melanoma, 2.33 µM; with UACC-257 melanoma it was 14.1 µM; in the assay with SNB-75 CNS, 1.83 µM. The TGI is 6.16 µM in the assay on A498 renal; 11.2 µM in the assay on SW-620 colon; 7.92 µM with MDA-MB-435; 8.75 µM in the assay with HCT-116 colon; greater than 21.4 µM with OVCAR-8 ovarian; 2.81 µM in the assay with SK-MEL-5 melanoma. Moreover, the TGI in the assay with M14 melanoma was determined as 9.44 µM; in the assay with UACC-257 melanoma, 33.7 µM; with SNB-75 CNS, 7.31 µM.
`O=C1C[C@@H](c2ccccc2)NCCCCN(O)CCCN1`: the TGI in the assay on A498 renal, with SW-620 colon, with MDA-MB-435, in the assay with HCT-116 colon, with HOP-92 NSCLC and with OVCAR-8 ovarian was greater than 100 µM in each case. Further, the TGI in the assay on SK-MEL-5 melanoma, in the assay on M14 melanoma, in the assay on UACC-257 melanoma and in the assay on SNB-75 CNS was greater than 100 µM in each case.
